Among the data in PubChem BioAssay AID256 (DTP/NCI, 2004) are T/C values, retold here.

Where “and” joins values, the source holds several entries; their conditions need not be identical. Equal values may be shown once. Inconclusive results and toxic doses are left out.

In this assay the test system is CD2F1 mice, L1210 leukemia ip, survival T/C. Put plainly: NCI In Vivo Anticancer Drug Screen. Data for tumor model L1210 Leukemia (intraperitoneal) in CD2F1 (CDF1) mice. To be noted: endpoint: mean survival time, higher = longer survival. In short, it runs like this: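 Vehicle-treated tumor-bearing mice served as controls (C) for compound-treated mice (T). Reported figure is T divided by C.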

Where [1] appears, read: dose: 100.0 mg/kg/injection, schedule: Q01DX001 (ip), vehicle: saline.
Where [2] appears, read: dose: 200.0 mg/kg/injection, schedule: Q01DX001 (ip), vehicle: saline.

With `Cc1ccc2[nH]c(=O)[nH]c(=O)c2n1`, the T/C (dose: 75.0 mg/kg/injection, schedule: Q01DX001 (ip), vehicle: other) was 98 % of control and the T/C (dose: 150.0 mg/kg/injection, schedule: Q01DX001 (ip), vehicle: other) was 98 % of control.

In the case of `Cn1c(CS)nc2ccccc21`, the T/C (dose: 100.0 mg/kg/injection, schedule: Q04DX002 (ip), vehicle: saline with Tween-80) was 101 % of control and the T/C (dose: 200.0 mg/kg/injection, schedule: Q04DX002 (ip), vehicle: saline with Tween-80) was 93 % of control.

Take `COc1ccc2c[n+](C)c3c4cc(OC)c(OC)cc4ccc3c2c1`: for the setting “dose: 25.0 mg/kg/injection, schedule: Q04DX003 (ip), vehicle: saline with Tween-80”, the T/C is 96 % of control.

With `O=C(O)C1=CC=C(c2ccccc2)C(=O)C1`, the T/C reads like this: (dose: 12.5 mg/kg/injection, schedule: Q01DX009 (ip), vehicle: saline with Tween-80) 100 % of control; (dose: 25.0 mg/kg/injection, schedule: Q01DX009 (ip), vehicle: saline with Tween-80) 98 % of control; (dose: 50.0 mg/kg/injection, schedule: Q01DX009 (ip), vehicle: saline with Tween-80) 88 % of control and 90 % of control; (dose: 100.0 mg/kg/injection, schedule: Q01DX001 (ip), vehicle: saline with Tween-80) 97 % of control; (dose: 200.0 mg/kg/injection, schedule: Q01DX001 (ip), vehicle: saline with Tween-80) 93 % of control.

Turning to `CC(C)C(Br)C(=O)NC(Cc1ccccc1)C(=O)O` (configuration not stated), the T/C is, setting by setting: (dose: 100.0 mg/kg/injection, schedule: Q04DX003 (ip), vehicle: saline with Tween-80) 101 % of control; (dose: 200.0 mg/kg/injection, schedule: Q04DX003 (ip), vehicle: saline with Tween-80) 110 % of control; (dose: 400.0 mg/kg/injection, schedule: Q04DX003 (ip), vehicle: saline with Tween-80) 122 % of control.

As to `N=C(N)SCc1c2ccccc2c(CSC(=N)N)c2ccccc12`, the T/C was 109 % of control (dose: 0.06 mg/kg/injection, schedule: Q#B X Z (ip), vehicle: saline); 121 % of control (dose: 0.13 mg/kg/injection, schedule: Q#B X Z (ip), vehicle: saline); 115 % of control (dose: 0.39 mg/kg/injection, schedule: Q01DX Z (ip), vehicle: saline); 121 % of control (dose: 0.78 mg/kg/injection, schedule: Q01DX Z (ip), vehicle: saline); 155 % of control (dose: 1.04 mg/kg/injection, schedule: Q#B X Z (ip), vehicle: saline); 160 % of control (dose: 2.08 mg/kg/injection, schedule: Q#B X Z (ip), vehicle: saline). The T/C is 151 % of control (dose: 3.13 mg/kg/injection, schedule: Q01DX Z (ip), vehicle: saline); 162 % of control (dose: 6.25 mg/kg/injection, schedule: Q01DX Z (ip), vehicle: saline); 119 % of control (dose: 8.33 mg/kg/injection, schedule: Q#B X Z (ip), vehicle: saline); 156 % of control (dose: 12.5 mg/kg/injection, schedule: Q01DX Z (ip), vehicle: saline); 98 % of control (dose: 16.66 mg/kg/injection, schedule: Q#B X Z (ip), vehicle: saline); 155 % of control (dose: 25.0 mg/kg/injection, schedule: Q01DX Z (ip), vehicle: saline). For the same compound, the T/C (dose: 50.0 mg/kg/injection, schedule: Q01DX001 (ip), vehicle: saline) is 158 % of control; the T/C (dose: 50.0 mg/kg/injection, schedule: Q03HX008 (ip), vehicle: saline) was 178 % of control; the T/C (dose: 50.0 mg/kg/injection, schedule: Q03HX016 (ip), vehicle: saline) is 175 % of control; the T/C (dose: 50.0 mg/kg/injection, schedule: Q06HX004 (ip), vehicle: saline) is 151 % of control; the T/C (dose: 50.0 mg/kg/injection, schedule: Q08DX002 (ip), vehicle: saline) is 174 % of control; the T/C (dose: 50.0 mg/kg/injection, schedule: Q12HX002 (ip), vehicle: saline) is 173 % of control. Also, the T/C reads like this: (dose: 50.0 mg/kg/injection, schedule: Q12HX004 (ip), vehicle: saline) 189 % of control; (dose: 80.0 mg/kg/injection, schedule: Q01DX001 (ip), vehicle: saline) 168 % of control; under setting [1], 193 % of control; (dose: 100.0 mg/kg/injection, schedule: Q01DX009 (ip), vehicle: saline) 154 % of control; (dose: 100.0 mg/kg/injection, schedule: Q01DX Z (ip), vehicle: saline) 124 % of control; (dose: 100.0 mg/kg/injection, schedule: Q03HX008 (ip), vehicle: saline) 196 % of control. For the same compound, the T/C was 194 % of control (dose: 100.0 mg/kg/injection, schedule: Q03HX016 (ip), vehicle: saline); 220 % of control (dose: 100.0 mg/kg/injection, schedule: Q08DX002 (ip), vehicle: saline); 239 % of control (dose: 100.0 mg/kg/injection, schedule: Q12HX002 (ip), vehicle: saline); 224 % of control (dose: 100.0 mg/kg/injection, schedule: Q12HX004 (ip), vehicle: saline); 113 % of control (dose: 125.0 mg/kg/injection, schedule: Q01DX001 (ip), vehicle: saline); 227 % of control under setting [2]. The T/C runs as follows: (dose: 200.0 mg/kg/injection, schedule: Q01DX009 (ip), vehicle: saline) 106 % of control; (dose: 200.0 mg/kg/injection, schedule: Q01DX010 (oral), vehicle: saline) 94 % of control; (dose: 200.0 mg/kg/injection, schedule: Q01DX Z (ip), vehicle: saline) 88 % of control; (dose: 200.0 mg/kg/injection, schedule: Q03HX008 (ip), vehicle: saline) 207 % of control; (dose: 200.0 mg/kg/injection, schedule: Q03HX016 (ip), vehicle: saline) 204 % of control; (dose: 200.0 mg/kg/injection, schedule: Q06HX008 (ip), vehicle: saline) 179 % of control. For the same compound, the T/C (dose: 200.0 mg/kg/injection, schedule: Q08DX002 (ip), vehicle: saline) is 197 % of control; the T/C (dose: 200.0 mg/kg/injection, schedule: Q12HX002 (ip), vehicle: saline) is 254 % of control; the T/C (dose: 200.0 mg/kg/injection, schedule: Q12HX004 (ip), vehicle: saline) is 158 % of control; the T/C (dose: 320.0 mg/kg/injection, schedule: Q01DX001 (ip), vehicle: saline) is 100 % of control; the T/C (dose: 400.0 mg/kg/injection, schedule: Q01DX010 (oral), vehicle: saline) was 90 % of control; the T/C (dose: 400.0 mg/kg/injection, schedule: Q03HX016 (ip), vehicle: saline) is 111 % of control. Besides, the T/C was 183 % of control (dose: 400.0 mg/kg/injection, schedule: Q06HX004 (ip), vehicle: saline); 152 % of control (dose: 400.0 mg/kg/injection, schedule: Q06HX008 (ip), vehicle: saline); 152 % of control (dose: 400.0 mg/kg/injection, schedule: Q08DX002 (ip), vehicle: saline); 118 % of control (dose: 400.0 mg/kg/injection, schedule: Q12HX004 (ip), vehicle: saline); 88 % of control (dose: 800.0 mg/kg/injection, schedule: Q01DX010 (oral), vehicle: saline); 162 % of control (dose: 1000.0 mg/kg/injection, schedule: Q01DX001 (ip), vehicle: saline).

Take `CCN(CC)CCCNC(C)=O`: the T/C runs as follows: (dose: 100.0 mg/kg/injection, schedule: Q04DX003 (ip), vehicle: saline) 98 % of control; (dose: 200.0 mg/kg/injection, schedule: Q04DX003 (ip), vehicle: saline) 96 % of control; (dose: 400.0 mg/kg/injection, schedule: Q04DX003 (ip), vehicle: saline) 101 % of control.

Consider `CC1(C(=O)O)OC12CCCCC2` (configuration not stated), for which the T/C was 107 % of control (dose: 100.0 mg/kg/injection, schedule: Q01DX009 (ip), vehicle: saline with Tween-80); 108 % of control (dose: 200.0 mg/kg/injection, schedule: Q01DX009 (ip), vehicle: saline with Tween-80); 108 % of control (dose: 400.0 mg/kg/injection, schedule: Q01DX009 (ip), vehicle: saline with Tween-80).

As for `CCCCCCCCCC/C=C/C1=C(N=[N+]=N)C(=O)c2ccccc2C1=O`, the T/C (dose: 100.0 mg/kg/injection, schedule: Q01DX001 (ip), vehicle: other) was 92 % of control; the T/C (dose: 200.0 mg/kg/injection, schedule: Q01DX001 (ip), vehicle: other) is 92 % of control; the T/C (dose: 400.0 mg/kg/injection, schedule: Q01DX001 (ip), vehicle: other) was 94 % of control.

For `O=C1c2ccccc2C(=O)c2cc(NS(=O)(=O)C(F)(F)F)ccc21`, the T/C runs as follows: under setting [1], 96 % of control; under setting [2], 100 % of control.
